The source made the active and inactive calls. The calls are words filed in the database; no cut-off is given here.
Tests used:
[1] = target: DNA topoisomerase 2-alpha (Homo sapiens) (UniProt P11388); assay: Inhibition of recombinant Top2 (unknown origin) assessed as inhibition of relaxation of supercoiled pBR322 plasmid DNA at 50 uM incubated for 15 mins by ethidium bromide staining based agarose gel electrophoresis analysis
[2] = target: T1, Protein deacetylase HDAC6 (Homo sapiens, UniProt Q9UBN7); assay: Inhibition of full-length recombinant N-terminal GST-tagged human HDAC6 expressed in baculovirus infected Sf9 cells using Ac-Leu-Gly-Lys(Ac)-AMC as substrate preincubated for 5 mins followed by substrate addition and further incubated for 30 mins by fluorescence based microtiter plate reader assay
T1 sequence (Q9UBN7 whole entry): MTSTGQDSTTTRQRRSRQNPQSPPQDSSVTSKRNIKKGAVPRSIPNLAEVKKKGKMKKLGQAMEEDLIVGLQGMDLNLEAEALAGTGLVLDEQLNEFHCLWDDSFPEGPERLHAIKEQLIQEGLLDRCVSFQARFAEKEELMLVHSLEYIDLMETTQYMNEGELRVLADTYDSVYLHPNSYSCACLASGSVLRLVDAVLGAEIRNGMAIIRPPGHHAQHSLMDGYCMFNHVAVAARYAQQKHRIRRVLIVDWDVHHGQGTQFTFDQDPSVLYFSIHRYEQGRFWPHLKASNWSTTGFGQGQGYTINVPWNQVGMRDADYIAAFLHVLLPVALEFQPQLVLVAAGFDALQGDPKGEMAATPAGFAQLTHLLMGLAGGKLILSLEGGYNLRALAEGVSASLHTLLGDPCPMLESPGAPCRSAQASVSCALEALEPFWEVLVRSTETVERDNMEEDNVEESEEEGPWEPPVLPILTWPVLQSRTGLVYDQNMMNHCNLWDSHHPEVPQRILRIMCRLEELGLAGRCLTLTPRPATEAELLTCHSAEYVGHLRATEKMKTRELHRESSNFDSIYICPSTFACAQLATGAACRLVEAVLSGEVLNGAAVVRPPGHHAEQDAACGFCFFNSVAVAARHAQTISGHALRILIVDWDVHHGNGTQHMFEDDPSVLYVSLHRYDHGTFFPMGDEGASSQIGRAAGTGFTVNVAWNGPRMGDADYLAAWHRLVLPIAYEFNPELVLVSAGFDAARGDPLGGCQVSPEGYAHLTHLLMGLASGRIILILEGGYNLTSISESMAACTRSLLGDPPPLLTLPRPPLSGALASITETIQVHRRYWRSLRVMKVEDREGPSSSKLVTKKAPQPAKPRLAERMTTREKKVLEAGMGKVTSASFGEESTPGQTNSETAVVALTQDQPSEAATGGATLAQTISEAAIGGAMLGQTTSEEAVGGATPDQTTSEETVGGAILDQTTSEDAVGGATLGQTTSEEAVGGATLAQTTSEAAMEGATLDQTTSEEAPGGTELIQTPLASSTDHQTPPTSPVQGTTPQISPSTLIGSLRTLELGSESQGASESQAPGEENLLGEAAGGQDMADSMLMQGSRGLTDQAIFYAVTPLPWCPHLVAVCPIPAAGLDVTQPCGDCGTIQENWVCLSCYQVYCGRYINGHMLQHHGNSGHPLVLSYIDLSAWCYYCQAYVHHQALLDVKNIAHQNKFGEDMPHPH

Histone deacetylase 2 [3] = target: T2, Histone deacetylase 2 (Homo sapiens, UniProt Q92769); assay: Inhibition of HDAC2 in HEL cells assessed as increase in acetyl-H4 levels at 20 to 100 nM incubated for 24 hrs by western blot analysis; assay type: cell-based; details: dose 20-100 nM
Histone deacetylase 1 [4] = target: T3, Histone deacetylase 1 (Homo sapiens, UniProt Q13547); assay: Inhibition of HDAC1 in HEL cells assessed as increase in acetyl-H3 levels at 20 to 100 nM incubated for 24 hrs by western blot analysis; assay type: cell-based; details: dose 20-100 nM
Histone deacetylase 1 [5] = target: T3, Histone deacetylase 1; assay: Inhibition of full-length recombinant human HDAC1 expressed in Baculovirus expression system using Ac-Leu-Gly-Lys(Ac)-AMC as substrate preincubated for 5 mins followed by substrate addition and further incubated for 30 mins by fluorescence based microtiter plate reader assay
Histone deacetylase 3 = Histone deacetylase 3 (Homo sapiens, UniProt O15379); assay: (§1) Inhibition of recombinant His-tagged human HDAC3 expressed in baculovirus infected insect cells using Ac-Leu-Gly-Lys(Ac)-AMC as substrate preincubated for 5 mins followed by substrate addition and further incubated for 30 mins by fluorescence based microtiter plate reader assay
HCT-116 = assay: Antiproliferative activity against human HCT-116 cells assessed as cell growth inhibition incubated for 8 hrs by CCK8 assay; assay type: functional, cell-based; details: HCT-116, 8 h
K562 = assay: Antiproliferative activity against human K562 cells assessed as cell growth inhibition incubated for 8 hrs by CCK8 assay; assay type: functional, cell-based; details: K562, 8 h
[6] = target: T4, DNA topoisomerase 1 (Homo sapiens) (UniProt P11387); assay: Inhibition of recombinant Top1 (unknown origin) assessed as inhibition of relaxation of supercoiled pBR322 plasmid DNA at 100 uM incubated for 15 mins by ethidium bromide staining based agarose gel electrophoresis analysis
T4 sequence (whole entry): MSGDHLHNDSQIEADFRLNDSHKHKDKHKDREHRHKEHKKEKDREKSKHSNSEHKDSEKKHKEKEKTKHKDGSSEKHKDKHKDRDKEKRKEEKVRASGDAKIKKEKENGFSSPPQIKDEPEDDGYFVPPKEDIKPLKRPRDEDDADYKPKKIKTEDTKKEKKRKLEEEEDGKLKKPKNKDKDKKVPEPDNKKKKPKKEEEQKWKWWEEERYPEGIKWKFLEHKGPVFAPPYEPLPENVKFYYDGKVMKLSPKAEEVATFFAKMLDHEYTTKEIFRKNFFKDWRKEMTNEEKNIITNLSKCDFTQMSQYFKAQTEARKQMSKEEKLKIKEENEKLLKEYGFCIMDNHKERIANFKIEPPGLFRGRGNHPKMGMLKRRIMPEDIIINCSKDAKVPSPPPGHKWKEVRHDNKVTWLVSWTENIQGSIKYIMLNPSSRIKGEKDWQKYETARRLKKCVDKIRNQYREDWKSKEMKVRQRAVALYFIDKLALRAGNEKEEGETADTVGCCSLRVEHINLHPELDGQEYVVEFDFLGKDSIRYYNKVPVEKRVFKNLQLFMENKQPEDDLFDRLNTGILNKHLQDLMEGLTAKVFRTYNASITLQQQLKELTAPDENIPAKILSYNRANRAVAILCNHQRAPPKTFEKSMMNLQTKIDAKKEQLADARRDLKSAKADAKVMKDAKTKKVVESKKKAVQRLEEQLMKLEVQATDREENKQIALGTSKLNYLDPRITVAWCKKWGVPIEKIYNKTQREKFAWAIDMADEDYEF

A549 = assay: Antiproliferative activity against human A549 cells assessed as cell growth inhibition incubated for 8 hrs by CCK8 assay; assay type: functional, cell-based; details: A549, 8 h
[7] = target: T4, DNA topoisomerase 1 (Homo sapiens); assay: Inhibition of recombinant Top1 (unknown origin) assessed as inhibition of relaxation of supercoiled pBR322 plasmid DNA at 50 uM incubated for 15 mins by ethidium bromide staining based agarose gel electrophoresis analysis
[8] = target: DNA topoisomerase 2-alpha (Homo sapiens) (UniProt P11388); assay: Inhibition of recombinant Top2 (unknown origin) assessed as inhibition of relaxation of supercoiled pBR322 plasmid DNA at 100 uM incubated for 15 mins by ethidium bromide staining based agarose gel electrophoresis analysis
HEL [9] = assay: Antiproliferative activity against HEL cells assessed as cell growth inhibition incubated for 8 hrs by CCK8 assay; assay type: functional, cell-based; details: Homo sapiens
MCF7 = assay: Antiproliferative activity against human MCF7 cells assessed as cell growth inhibition incubated for 8 hrs by CCK8 assay; assay type: functional, cell-based; details: MCF7, 8 h
Histone deacetylase 2 [10] = target: T2, Histone deacetylase 2; assay: as §1, with “full length C-terminal GST tagged” for “His-tagged”, “HDAC2” for “HDAC3”, “infected Sf9” for “infected”
Histone deacetylase 8 = target: T5, Histone deacetylase 8 (Homo sapiens, UniProt Q9BY41); assay: Inhibition of full-length recombinant C-terminal His-tagged human HDAC8 expressed in baculovirus infected Sf9 insect cells using Ac-Leu-Gly-Lys(Tfa)-AMC as substrate preincubated for 5 mins followed by substrate addition and further incubated for 30 mins by fluorescence based microtiter plate reader assay
T5 sequence (Q9BY41 whole entry): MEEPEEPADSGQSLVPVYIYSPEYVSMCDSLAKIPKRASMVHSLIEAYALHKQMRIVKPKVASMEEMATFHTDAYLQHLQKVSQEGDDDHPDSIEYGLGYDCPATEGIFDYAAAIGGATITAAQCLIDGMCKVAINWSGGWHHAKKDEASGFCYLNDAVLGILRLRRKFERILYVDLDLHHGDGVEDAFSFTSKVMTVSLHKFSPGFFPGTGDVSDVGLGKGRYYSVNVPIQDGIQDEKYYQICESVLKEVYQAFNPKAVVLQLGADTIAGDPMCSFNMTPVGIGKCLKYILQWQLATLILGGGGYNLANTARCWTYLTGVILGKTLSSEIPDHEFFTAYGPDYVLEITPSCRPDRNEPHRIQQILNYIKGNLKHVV

HepG2 = assay: Antiproliferative activity against human HepG2 cells assessed as cell growth inhibition incubated for 8 hrs by CCK8 assay; assay type: functional, cell-based; details: HepG2, 8 h
HEL [11] = assay: Synergistic antiproliferative effect on HEL cells assessed as fractional inhibitory concentration index at 0.0046 uM in presence of vorinostat; assay type: functional, Homo sapiens
HEL [12] = assay: Synergistic antiproliferative effect on HEL cells assessed as fractional inhibitory concentration index at 0.04 uM in presence of vorinostat; assay type: functional, Homo sapiens
HEL [13] = assay: Synergistic antiproliferative effect on HEL cells assessed as combination index at 0.37 uM in presence of vorinostat; assay type: functional, Homo sapiens
HEL [14] = assay: Synergistic antiproliferative effect on HEL cells assessed as combination index at 1.11 uM in presence of vorinostat; assay type: functional, Homo sapiens
HEL [15] = assay: Synergistic antiproliferative effect on HEL cells assessed as fractional inhibitory concentration index at 0.014 uM in presence of vorinostat; assay type: functional, Homo sapiens
HEL [16] = assay: Synergistic antiproliferative effect on HEL cells assessed as combination index at 3.33 uM in presence of vorinostat; assay type: functional, Homo sapiens
HEL [17] = assay: Synergistic antiproliferative effect on HEL cells assessed as fractional inhibitory concentration index at 0.12 uM in presence of vorinostat; assay type: functional, Homo sapiens
HEL [18] = assay: Synergistic antiproliferative effect on HEL cells assessed as combination index at 0.04 uM in presence of vorinostat; assay type: functional, Homo sapiens
HEL [19] = assay: Synergistic antiproliferative effect on HEL cells assessed as fractional inhibitory concentration index at 1.11 uM in presence of vorinostat; assay type: functional, Homo sapiens
HEL [20] = assay: Synergistic antiproliferative effect on HEL cells assessed as combination index at 10 uM in presence of vorinostat; assay type: functional, Homo sapiens
HEL [21] = assay: Synergistic antiproliferative effect on HEL cells assessed as combination index at 0.046 uM in presence of vorinostat; assay type: functional, Homo sapiens
HEL [22] = assay: Antitumor activity against HEL cells xenografted in BALB/C mouse assessed as T/C value at 10 mg/kg, po qd for 14 days consecutively by caliper method relative to control; assay type: functional, Homo sapiens; details: time 14 day
HEL [23] = assay: Synergistic antiproliferative effect on HEL cells assessed as fractional inhibitory concentration index at 0.37 uM in presence of vorinostat; assay type: functional, Homo sapiens
HEL [24] = assay: Synergistic antiproliferative effect on HEL cells assessed as fractional inhibitory concentration index at 3.33 uM in presence of vorinostat; assay type: functional, Homo sapiens
HEL [25] = assay: Synergistic antiproliferative effect on HEL cells assessed as fractional inhibitory concentration index at 10 uM in presence of vorinostat; assay type: functional, Homo sapiens
HEL [26] = assay: Antitumor activity against HEL cells xenografted in BALB/C mouse assessed as tumor growth inhibition at 10 mg/kg, po qd for 14 days consecutively by caliper method relative to control; assay type: functional, Homo sapiens; details: 336 h, time 14 day, read-out: TGI
HEL [27] = assay: Synergistic antiproliferative effect on HEL cells assessed as combination index at 0.014 uM in presence of vorinostat; assay type: functional, Homo sapiens
HEL [28] = assay: Synergistic antiproliferative effect on HEL cells assessed as combination index at 0.12 uM in presence of vorinostat; assay type: functional, Homo sapiens

T2 sequence (Q92769 whole entry): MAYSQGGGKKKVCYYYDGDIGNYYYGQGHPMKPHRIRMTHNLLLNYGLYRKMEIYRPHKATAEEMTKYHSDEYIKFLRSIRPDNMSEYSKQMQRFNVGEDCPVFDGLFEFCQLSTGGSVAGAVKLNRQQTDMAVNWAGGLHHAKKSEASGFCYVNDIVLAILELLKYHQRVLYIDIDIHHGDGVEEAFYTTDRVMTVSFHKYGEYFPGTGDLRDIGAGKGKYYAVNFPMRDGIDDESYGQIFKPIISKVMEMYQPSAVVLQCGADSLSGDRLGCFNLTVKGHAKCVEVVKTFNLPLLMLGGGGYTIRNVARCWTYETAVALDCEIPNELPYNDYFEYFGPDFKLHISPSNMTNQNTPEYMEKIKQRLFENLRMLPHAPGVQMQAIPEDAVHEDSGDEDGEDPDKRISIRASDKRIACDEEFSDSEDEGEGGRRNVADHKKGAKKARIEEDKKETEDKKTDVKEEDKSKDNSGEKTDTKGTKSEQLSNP
DNA topoisomerase 2-alpha (Homo sapiens), sequence (P11388 whole entry): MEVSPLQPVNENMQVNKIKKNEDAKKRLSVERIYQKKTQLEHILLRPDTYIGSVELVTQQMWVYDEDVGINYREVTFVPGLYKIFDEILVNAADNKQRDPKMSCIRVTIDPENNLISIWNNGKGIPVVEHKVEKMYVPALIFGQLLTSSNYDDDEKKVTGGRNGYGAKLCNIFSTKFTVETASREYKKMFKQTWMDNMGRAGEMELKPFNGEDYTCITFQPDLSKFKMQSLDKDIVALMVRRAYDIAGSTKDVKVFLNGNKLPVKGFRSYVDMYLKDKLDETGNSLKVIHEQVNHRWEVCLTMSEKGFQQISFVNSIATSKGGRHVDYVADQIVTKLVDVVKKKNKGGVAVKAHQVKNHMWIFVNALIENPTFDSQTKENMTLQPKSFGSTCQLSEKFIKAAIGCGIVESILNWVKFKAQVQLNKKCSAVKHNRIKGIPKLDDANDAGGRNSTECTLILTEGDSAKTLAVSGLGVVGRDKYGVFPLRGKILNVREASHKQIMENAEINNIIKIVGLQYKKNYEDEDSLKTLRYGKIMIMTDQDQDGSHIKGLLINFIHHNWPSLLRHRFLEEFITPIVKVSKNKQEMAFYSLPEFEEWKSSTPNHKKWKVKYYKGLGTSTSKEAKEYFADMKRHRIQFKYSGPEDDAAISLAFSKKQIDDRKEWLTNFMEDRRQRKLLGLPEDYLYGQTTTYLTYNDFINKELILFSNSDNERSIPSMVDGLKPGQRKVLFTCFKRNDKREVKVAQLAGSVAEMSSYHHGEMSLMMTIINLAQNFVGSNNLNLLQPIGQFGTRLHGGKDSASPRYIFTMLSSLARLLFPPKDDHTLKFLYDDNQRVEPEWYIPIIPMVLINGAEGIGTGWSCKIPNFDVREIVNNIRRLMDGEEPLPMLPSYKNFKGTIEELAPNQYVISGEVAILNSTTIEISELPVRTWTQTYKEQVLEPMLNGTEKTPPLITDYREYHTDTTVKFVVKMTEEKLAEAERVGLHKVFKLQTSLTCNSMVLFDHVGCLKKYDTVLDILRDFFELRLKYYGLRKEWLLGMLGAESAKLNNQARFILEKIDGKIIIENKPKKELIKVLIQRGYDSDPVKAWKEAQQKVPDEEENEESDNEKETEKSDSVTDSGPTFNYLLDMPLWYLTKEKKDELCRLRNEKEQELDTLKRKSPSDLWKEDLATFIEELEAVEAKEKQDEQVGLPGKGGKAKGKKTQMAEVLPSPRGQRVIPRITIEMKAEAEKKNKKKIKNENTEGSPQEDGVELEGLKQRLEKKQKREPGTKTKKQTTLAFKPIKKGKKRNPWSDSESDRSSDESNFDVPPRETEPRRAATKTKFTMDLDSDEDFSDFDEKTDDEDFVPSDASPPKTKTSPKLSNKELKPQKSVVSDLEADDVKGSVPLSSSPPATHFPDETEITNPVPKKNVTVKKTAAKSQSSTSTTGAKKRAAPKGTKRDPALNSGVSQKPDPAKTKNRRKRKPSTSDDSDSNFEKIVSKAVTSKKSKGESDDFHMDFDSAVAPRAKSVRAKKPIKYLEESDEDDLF
T3 sequence (Q13547 whole entry): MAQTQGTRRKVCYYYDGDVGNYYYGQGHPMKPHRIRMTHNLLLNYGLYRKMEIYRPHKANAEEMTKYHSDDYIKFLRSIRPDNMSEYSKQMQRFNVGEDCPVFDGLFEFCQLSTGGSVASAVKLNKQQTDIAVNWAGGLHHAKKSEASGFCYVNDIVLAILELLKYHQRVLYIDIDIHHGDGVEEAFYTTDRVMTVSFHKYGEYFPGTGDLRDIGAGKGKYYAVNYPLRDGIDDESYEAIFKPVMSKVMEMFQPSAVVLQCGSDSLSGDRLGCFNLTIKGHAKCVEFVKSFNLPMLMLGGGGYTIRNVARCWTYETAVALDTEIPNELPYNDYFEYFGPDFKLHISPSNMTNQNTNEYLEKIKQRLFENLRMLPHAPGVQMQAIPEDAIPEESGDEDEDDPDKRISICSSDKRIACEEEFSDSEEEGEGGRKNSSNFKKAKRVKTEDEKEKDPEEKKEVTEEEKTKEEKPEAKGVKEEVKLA
Histone deacetylase 3, sequence (O15379 whole entry): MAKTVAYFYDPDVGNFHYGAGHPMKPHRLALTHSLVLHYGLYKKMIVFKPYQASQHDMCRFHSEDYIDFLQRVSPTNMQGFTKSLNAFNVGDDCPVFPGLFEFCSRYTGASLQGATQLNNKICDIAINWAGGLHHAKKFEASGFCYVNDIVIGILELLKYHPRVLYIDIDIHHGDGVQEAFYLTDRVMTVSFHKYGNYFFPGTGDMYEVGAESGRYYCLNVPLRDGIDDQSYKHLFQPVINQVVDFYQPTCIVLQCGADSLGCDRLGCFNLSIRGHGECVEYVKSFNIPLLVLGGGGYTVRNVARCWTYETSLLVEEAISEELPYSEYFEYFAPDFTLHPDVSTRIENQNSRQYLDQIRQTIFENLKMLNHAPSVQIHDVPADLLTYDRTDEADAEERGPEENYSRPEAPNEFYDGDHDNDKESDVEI

## CN1c2ccc(F)cc2C(=O)N2CCc3c([nH]c4ccc(OCc5ccc(/C=C/C(=O)Nc6ccccc6N)cc5)cc34)C21 (stereo unspecified)
[1]
  inhibition: Active
[2]
  IC50: 11000 nM
Histone deacetylase 2 [3]
  inhibition: Active
Histone deacetylase 1 [4]
  inhibition: Active
Histone deacetylase 1 [5]
  IC50: 320 nM
Histone deacetylase 3
  IC50: 15000 nM
HCT-116
  IC50: > 2000 nM
K562
  IC50: 120 nM
[6]
  inhibition: Active
A549
  IC50: 930 nM
[7]
  inhibition: Active
[8]
  inhibition: Active
HEL [9]
  IC50: 240 nM
MCF7
  IC50: > 2000 nM
Histone deacetylase 2 [10]
  IC50: 42000 nM
Histone deacetylase 8
  IC50: 690 nM
HepG2
  IC50: 290 nM

## CN1c2ccc(F)cc2C(=O)N2CCc3c([nH]c4ccc(O)cc34)C21 (stereo unspecified)
HEL [11]
  fractional inhibitory concentration index (FICI): 0.727
HEL [12]
  fractional inhibitory concentration index (FICI): 0.836
HEL [13]
  CI: 0.956
HEL [14]
  CI: 0.954
HEL [15]
  fractional inhibitory concentration index (FICI): 0.802
HEL [16]
  CI: 0.954
HEL [17]
  fractional inhibitory concentration index (FICI): 0.853
HEL [18]
  CI: 0.784
HEL [19]
  fractional inhibitory concentration index (FICI): 0.852
HCT-116
  IC50: 190 nM
HEL [20]
  CI: 1.03
K562
  IC50: 230 nM
HEL [21]
  CI: 0.453
HEL [22]
  T/C: 94.9%
A549
  IC50: 530 nM
HEL [23]
  fractional inhibitory concentration index (FICI): 0.868
HEL [24]
  fractional inhibitory concentration index (FICI): 0.862
HEL [25]
  fractional inhibitory concentration index (FICI): 0.86
HEL [26]
  inhibition in vivo at 10 mg/kg: 7.4%
HEL [9]
  IC50: 130 nM
MCF7
  IC50: 760 nM
HEL [27]
  CI: 0.561
HEL [28]
  CI: 0.798
HepG2
  IC50: 430 nM
